Measured values published in PubChem BioAssay AID330 (DTP/NCI, 2004).
Several values for one entry are separate records, joined by “and”; a condition that tells them apart may be missing. Identical values can stand only once. Toxic doses and inconclusive results are not listed. Rule for the calls: active = survival T/C of 150% or more; inactive = T/C below 125% in these data.

System: P388 leukemia ip, CD2F1 mice, survival T/C
Experiment: NCI In Vivo Anticancer Drug Screen. Data for tumor model P388 Leukemia (intraperitoneal) in CD2F1 (CDF1) mice
Details: endpoint: median survival time, higher = longer survival
Summary of the method: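 Mice carrying the transplanted tumor received test compound or vehicle. Survival was recorded in each group, and the value is the treated-group measurement divided by that of the vehicle-treated control group.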

[1] = dose: 12.5 mg/kg/injection, schedule: Q01DX009 (ip), vehicle: saline with Tween-80
[2] = dose: 25.0 mg/kg/injection, schedule: Q01DX009 (ip), vehicle: saline with Tween-80
[3] = dose: 50.0 mg/kg/injection, schedule: Q01DX009 (ip), vehicle: saline with Tween-80
[4] = dose: 50.0 mg/kg/injection, schedule: Q01DX005 (ip), vehicle: saline with Tween-80
[5] = dose: 100.0 mg/kg/injection, schedule: Q01DX005 (ip), vehicle: saline with Tween-80
[6] = dose: 200.0 mg/kg/injection, schedule: Q01DX005 (ip), vehicle: saline with Tween-80
[7] = dose: 100.0 mg/kg/injection, schedule: Q01DX009 (ip), vehicle: saline
[8] = dose: 200.0 mg/kg/injection, schedule: Q01DX009 (ip), vehicle: saline
[9] = dose: 50.0 mg/kg/injection, schedule: Q01DX005 (ip), vehicle: Klucel (hydroxypropylcellulose) (HPC)
[10] = dose: 100.0 mg/kg/injection, schedule: Q01DX005 (ip), vehicle: Klucel (hydroxypropylcellulose) (HPC)
[11] = dose: 60.0 mg/kg/injection, schedule: Q01DX005 (ip), vehicle: saline with Tween-80
[12] = dose: 120.0 mg/kg/injection, schedule: Q01DX005 (ip), vehicle: saline with Tween-80
[13] = dose: 240.0 mg/kg/injection, schedule: Q01DX005 (ip), vehicle: saline with Tween-80

Measured: T/C

Nc1nc2[nH]c(=O)cnc2c(=O)[nH]1
inactive: [1] 107 % of control | [2] 107 % of control | [3] 108 % of control | dose: 50.0 mg/kg/injection, schedule: Q01DX009 (ip), vehicle: suspension in saline 106 % of control | dose: 100.0 mg/kg/injection, schedule: Q01DX009 (ip), vehicle: suspension in saline 91 % of control | dose: 200.0 mg/kg/injection, schedule: Q01DX009 (ip), vehicle: suspension in saline 107 % of control | dose: 300.0 mg/kg/injection, schedule: Q01DX009 (ip), vehicle: saline 91 % of control

COc1ccc(C2=NC(C)(C)CO2)cc1C
inactive: [4] 103 % of control | [5] 103 % of control | [6] 94 % of control

CCC(=O)NC(C)C(=O)O (stereo not drawn)
inactive: dose: 6.25 mg/kg/injection, schedule: Q01DX009 (ip), vehicle: saline 100 % of control | dose: 12.5 mg/kg/injection, schedule: Q01DX009 (ip), vehicle: saline 88 % of control | dose: 25.0 mg/kg/injection, schedule: Q01DX009 (ip), vehicle: saline 88 % of control | [7] 94 % of control | [8] 97 % of control

Cc1cc(-c2ccc(N=Nc3c(C)nn(-c4ccc(S(=O)(=O)O)cc4)c3O)c(C)c2)ccc1N=Nc1ccc(O)c(C(=O)O)c1
inactive: dose: 6.25 mg/kg/injection, schedule: Q01DX009 (ip), vehicle: saline with Tween-80 100 % of control | [1] 101 % of control | [2] 93 % of control

O=C(CCc1ccc(O)cc1)c1c(O)cc(O)cc1O
inactive: [4] 107 % of control | dose: 50.0 mg/kg/injection, schedule: Q01DX009 (ip), vehicle: saline + alcohol 112 % of control | [5] 108 % of control | dose: 100.0 mg/kg/injection, schedule: Q01DX009 (ip), vehicle: saline + alcohol 117 % of control | [6] 114 % of control | dose: 200.0 mg/kg/injection, schedule: Q01DX009 (ip), vehicle: saline + alcohol 108 % of control | dose: 400.0 mg/kg/injection, schedule: Q01DX005 (ip), vehicle: saline with Tween-80 114 % of control

O/N=C(/C=N/O)SCCSC(/C=N/O)=N/O
inactive: [9] 110 % of control | [10] 109 % of control | dose: 200.0 mg/kg/injection, schedule: Q01DX005 (ip), vehicle: Klucel (hydroxypropylcellulose) (HPC) 112 % of control

Cc1ccc(S(=O)(=O)N(C)C=O)cc1
inactive: [3] 100 % of control | dose: 100.0 mg/kg/injection, schedule: Q01DX009 (ip), vehicle: saline with Tween-80 103 % of control | dose: 200.0 mg/kg/injection, schedule: Q01DX009 (ip), vehicle: saline with Tween-80 101 % of control

COc1c(C)n(C2OC(CO)C(O)C2O)ccc1=O (stereo not drawn)
inactive: dose: 50.0 mg/kg/injection, schedule: Q01DX009 (ip), vehicle: saline 104 % of control | [7] 100 % of control | [8] 103 % of control | dose: 400.0 mg/kg/injection, schedule: Q01DX009 (ip), vehicle: saline 98 % of control

CC(=O)ON1C(=O)C=CC1=O
inactive: dose: 0.78 mg/kg/injection, schedule: Q01DX009 (ip), vehicle: water 109 % of control | dose: 1.56 mg/kg/injection, schedule: Q01DX009 (ip), vehicle: water 101 % of control | dose: 3.13 mg/kg/injection, schedule: Q01DX009 (ip), vehicle: water 104 % of control and 87 % of control | dose: 6.25 mg/kg/injection, schedule: Q01DX009 (ip), vehicle: water 104 % of control and 86 % of control | dose: 12.5 mg/kg/injection, schedule: Q01DX009 (ip), vehicle: water 109 % of control and 90 % of control

Cc1c(C(N)=O)no[n+]1[O-]
inactive: dose: 30.0 mg/kg/injection, schedule: Q01DX005 (ip), vehicle: saline 100 % of control | dose: 60.0 mg/kg/injection, schedule: Q01DX005 (ip), vehicle: saline 99 % of control and 100 % of control | dose: 120.0 mg/kg/injection, schedule: Q01DX005 (ip), vehicle: saline 99 % of control and 100 % of control

CCS(=O)(=O)[O][Sn]([CH2]C)([CH2]C)[O]S(=O)(=O)CC
inactive: dose: 1.56 mg/kg/injection, schedule: Q04DX003 (ip), vehicle: saline 107 % of control | dose: 3.12 mg/kg/injection, schedule: Q04DX003 (ip), vehicle: saline 110 % of control | dose: 6.25 mg/kg/injection, schedule: Q04DX003 (ip), vehicle: saline 116 % of control and 121 % of control

COc1ccc(CC2C(=O)NC(C)C(=O)N(C)C3Cc4ccc(cc4)Oc4cc(ccc4OC(C)=O)CC(C(=O)NC(C)C(=O)NC(C)C(=O)N2C)N(C)C3=O)cc1 (stereo not drawn)
active: dose: 2.0 mg/kg/injection, schedule: Q01DX009 (ip), vehicle: none 167 % of control

CC1CC[N-]C(C)C1.CN(C)C=O.[Cl][Pt][Cl] (stereo not drawn)
inactive: dose: 1.56 mg/kg/injection, schedule: Q01DX009 (ip), vehicle: saline with Tween-80 114 % of control | dose: 3.13 mg/kg/injection, schedule: Q01DX009 (ip), vehicle: saline with Tween-80 124 % of control

Clc1ccc2nc(CI)c(CI)nc2c1
inactive: dose: 5.5 mg/kg/injection, schedule: Q01DX009 (ip), vehicle: saline with Tween-80 104 % of control | dose: 8.3 mg/kg/injection, schedule: Q01DX009 (ip), vehicle: saline with Tween-80 95 % of control | [1] 100 % of control | dose: 18.7 mg/kg/injection, schedule: Q01DX009 (ip), vehicle: saline with Tween-80 118 % of control | dose: 25.0 mg/kg/injection, schedule: Q04DX003 (ip), vehicle: saline with Tween-80 118 % of control | dose: 50.0 mg/kg/injection, schedule: Q04DX003 (ip), vehicle: saline with Tween-80 118 % of control | dose: 100.0 mg/kg/injection, schedule: Q04DX003 (ip), vehicle: saline with Tween-80 122 % of control

OC1COC(O)(CN2CCOCC2)C(O)C1O (stereo not drawn)
inactive: [4] 100 % of control | [5] 98 % of control | [6] 97 % of control

COc1ccc(NP2(=O)N(Cc3ccc(Cl)cc3)CCCN2Cc2ccc(Cl)cc2)cc1
inactive: [9] 100 % of control | [10] 88 % of control

Brc1ccc(C(Nc2nncs2)Nc2nncs2)cc1
inactive: [11] 111 % of control | [12] 115 % of control | [13] 107 % of control

CC1C(c2ccccc2)=NN(C)c2ccccc21 (stereo not drawn)
inactive: [11] 97 % of control | [12] 102 % of control | [13] 90 % of control

CCCCC#CCOCC(O)CCl (stereo not drawn)
inactive: dose: 12.5 mg/kg/injection, schedule: Q01DX009 (ip), vehicle: Klucel (hydroxypropylcellulose) (HPC) 100 % of control | dose: 25.0 mg/kg/injection, schedule: Q01DX009 (ip), vehicle: Klucel (hydroxypropylcellulose) (HPC) 100 % of control | dose: 50.0 mg/kg/injection, schedule: Q01DX009 (ip), vehicle: Klucel (hydroxypropylcellulose) (HPC) 98 % of control | dose: 100.0 mg/kg/injection, schedule: Q01DX009 (ip), vehicle: Klucel (hydroxypropylcellulose) (HPC) 100 % of control | dose: 200.0 mg/kg/injection, schedule: Q01DX009 (ip), vehicle: Klucel (hydroxypropylcellulose) (HPC) 103 % of control

O=C1C(Cl)=C(NC2C(O)OC(CO)C(O)C2O)C(=O)C(Cl)=C1NC1C(O)OC(CO)C(O)C1O (stereo not drawn)
inactive: [4] 96 % of control | [5] 90 % of control | [6] 97 % of control

NC(=S)N/N=C/c1c(Br)nc2n1CCS2
inactive: dose: 100.0 mg/kg/injection, schedule: Q01DX001 (ip), vehicle: Klucel (hydroxypropylcellulose) (HPC) 99 % of control | dose: 200.0 mg/kg/injection, schedule: Q01DX001 (ip), vehicle: Klucel (hydroxypropylcellulose) (HPC) 92 % of control | dose: 400.0 mg/kg/injection, schedule: Q01DX001 (ip), vehicle: Klucel (hydroxypropylcellulose) (HPC) 93 % of control

CCOc1c(N=Nc2ccc(O)cc2)c(C)nn1C(N)=S
inactive: dose: 15.0 mg/kg/injection, schedule: Q01DX005 (ip), vehicle: Klucel + Tween-80 99 % of control | dose: 30.0 mg/kg/injection, schedule: Q01DX005 (ip), vehicle: Klucel + Tween-80 101 % of control

CN(C)C1CS(=O)(=O)OC2=C1CCc1sccc12 (stereo not drawn)
inactive: dose: 60.0 mg/kg/injection, schedule: Q01DX005 (ip), vehicle: Klucel (hydroxypropylcellulose) (HPC) 102 % of control | dose: 120.0 mg/kg/injection, schedule: Q01DX005 (ip), vehicle: Klucel (hydroxypropylcellulose) (HPC) 100 % of control | dose: 240.0 mg/kg/injection, schedule: Q01DX005 (ip), vehicle: Klucel (hydroxypropylcellulose) (HPC) 97 % of control
